Like-named read-outs stand apart in the source and are kept apart here.
Assays:
FKBP12 = FKBP12 (Homo sapiens, UniProt P62942); assay: Inhibition of peptidyl-prolyl isomerase (rotamase) activity of FKBP, chymotrypsin-coupled assay; type: biochemical
Excerpt: The inhibition of the prolyl peptidyl cis-trans isomerase activity of FKBP may be measured as an indicator of this affinity.
Inhibition of the peptidyl-prolyl isomerase (rotamase) activity of the compounds used in the inventive methods and pharmaceutical compositions can be evaluated by known methods described in the literature (Harding et al., Nature, 1989, 341:758-760; Holt et al. J. Am. Chem. Soc., 115:9923-9938). These values are obtained as apparent Ki 's and are presented for representative compounds in TABLE B.
The cis-trans isomerization of an alanine-proline bond in a model substrate, N-succinyl-Ala-Ala-Pro-Phe-p-nitroanilide, is monitored spectrophotometrically in a chymotrypsin-coupled assay, which releases para-nitroanilide from the trans form of the substrate. The inhibition of this reaction caused by the addition of different concentrations of inhibitor is determined, and the data is analyzed as a change in first-order rate constant as a function of inhibitor concentration to yield the apparent Ki values.
In a plastic cuvette are added […] of ice cold assay buffer (25 mM HEPES, pH 7.8, 100 mM NaCl), 10 mL of FKBP (2.5 mM in 10 mM Tris-Cl pH 7.5, 100 mM NaCl, 1 mM dithiothreitol), 25 mL of chymotrypsin (50 mg/ml in 1 mM HCl) and […] of test compound at various concentrations in dimethyl sulfoxide. The reaction is initiated by the addition of 5 mL of substrate (succinyl-Ala-Phe-Pro-Phe-para-nitroanilide, 5 mg/mL in 2.35 mM LiCl in trifluoroethanol).
The absorbance at 390 nm versus time is monitored for 90 seconds using a spectrophotometer and the rate constants are determined from the absorbance versus time data files.

[1] = tested on: retinal ganglion cell axons; assay: Protection of retinal ganglion cell axons from degeneration following optic nerve transection, RT 97 axon density (Table V); type: in vivo
Excerpt: Efficacy of representative compounds from different immunophilin ligand series in protecting retinal ganglion cell axons from degeneration following optic nerve transection is set forth in Table V.

[2] = Clearance (comments of Table V); type: in vitro ADME
[3] = apparent Ki, Table B, read-out: Ki

FKBP12, sequence (P62942 whole entry): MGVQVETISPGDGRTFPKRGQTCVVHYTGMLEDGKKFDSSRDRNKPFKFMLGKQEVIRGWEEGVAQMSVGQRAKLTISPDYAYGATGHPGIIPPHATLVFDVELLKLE

Ki (FKBP12; [3]) [nM] | Compound | Ki (FKBP12; Table V, read-out: Ki rotomase) [nM] | RT 97 RCC axon density 11 days after ON transection (36 ON axon rescued) [1] [%] | Clearance [2] [µL/min]
– | CCC(C)(C)C(=O)C(=O)N1CCS[C@H]1C(=O)OCCCc1cccnc1 [F] | 272 | 55.1 | –
– | CCC(C)(C)C(=O)C(=O)N1CCCC[C@H]1C(=O)O [H] | – | 30.3 | –
– | CCC(C)(C)C(=O)C(=O)N1CCC[C@H]1C(=O)O [L] | – | 7.8 | 5.2
– | O=C(SCCCc1ccccc1)[C@@H]1CCCN1S(=O)(=O)Cc1ccccc1 [C] | – | 60.4 | 31.1
– | O=C(OCCCCc1ccccc1)[C@@H]1CCCCN1S(=O)(=O)Cc1ccccc1 [D] | – | 58.4 | –
107 | Cc1ccc(S(=O)(=O)N2CCCCC2C(=O)OC(CCCc2ccccc2)CCCc2ccccc2)cc1 (stereo not shown) [Compound 3, 1,7-diphenyl-4-heptyl-N-(para-toluene-sulfonyl)pipecolate] | – | – | –
– | CN(C)C(=O)N1CCC[C@H]1C(=O)SCCCc1ccccc1 [N] | – | – | 21.9
470 | O=C(OCCCCc1ccccc1)C1CCCCN1S(=O)(=O)c1ccccc1 (stereo not shown) [Compound 6, 4-phenyl-1-butyl-N-(benzene-sulfonyl)pipecolate] | – | – | –
504 | Cc1ccc(S(=O)(=O)N2CCCCC2C(=O)OCCCCc2ccccc2)cc1 (stereo not shown) [Compound 5, 4-phenyl-1-butyl-N-(para-toluene-sulfonyl)pipecolate] | – | – | –
– | O=C(SCCCc1ccccc1)[C@@H]1CCCN1C(=O)NC12CC3CC(CC(C3)C1)C2 [B] | – | 100 | –
– | CCC(C)(C)C(=O)C(=O)N1CCC[C@H]1C(=O)SCCC(c1ccccc1)c1ccccc1 [M] | – | -6.3 | 12.5
– | CCC(C)(C)C(=O)CN1CCCCC1C(=O)OC(CCc1ccccc1)CCc1ccccc1 (stereo not shown) [E] | – | 56.6 | 42.8
– | CCC(C)(C)C(=O)C(=O)N1CCCC[C@H]1C(=O)O [G] | – | 34.0 | –
– | O=C(OCCCc1cccnc1)[C@@H]1CCCN1C(=S)NC1CCCCC1 [I] | – | 23.8 | 8.0
– | CCC(C)(C)C(=O)C(=O)N1CCCC[C@H]1C(=O)CCCCc1cccnc1 [J] | 210 | 15.8 | 1.5
– | CCC(C)(C)C(=O)C(=O)N1CCCC[C@H]1C(=O)SCCC(c1ccccc1)c1ccccc1 [K] | – | 13.0 | 4.5
